The values below come from patent US8487006B2, “Method of enhancing TGF-β signalling” (Auxagen, Inc., priority 2008, dated 2013).

The subject of data set [1] is hypercholesterolemic ApoE-null mice. Kind of data set: Atherosclerosis in hypercholesterolemic ApoE-null mice (coronary artery histology, TβR-II staining, plasma cholesterol). Format: in vivo. How it is done: (§1) Wild-type and ApoE-null mice were treated with vehicle only (a, c) or 1 mg/kg dynasore (b, d) every two days for 8 weeks. The coronary arteries were removed from the animals and subjected to histological analysis by H & E staining (A) and indirect immunofluorescent staining for TβR-II(B). The asterisk (*) indicates the location of the lumen in coronary arteries. The arrow indicates the immunofluorescent staining of TβR-II in the aortic endothelium.
(§2) We hypothesize that TGF-β enhancers such as inhibitors of clathrin-dependent endocytosis may ameliorate atherosclerosis caused by cholesterol-induced suppression of TGF-β responsiveness in vascular cells^3,12. To test our hypothesis, we treated hypercholesterolemic ApoE-null mice with dynasore (1 mg/kg body weight) via intraperitoneal administration every two days for 8 weeks. We chose dynasore for two reasons. […] At 50 μM, it enhances TGF-β-stimulated expression of PAI-1 in these cell types by ˜4-5 fold, 2) Dynasore is the only inhibitor tested which alone is capable of stimulating PAI-1 expression. […] The plasma levels of cholesterol in wild-type mice treated with either vehicle only or dynasore were 120±10 and 125±20 mg/dl, respectively.
(§3) However, no TβR-II staining was found in the aortic endothelium and smooth muscle of coronary arteries in ApoE-null mice treated with vehicle only (FIG. 4Bc).

For data set [2], the system named is wild-type mice. Kind of data set: Wild-type mice treated with dynasore (organ pathology, coronary artery histology, TβR-II staining, plasma cholesterol). It is filed as in vivo. How it is done:
as §1, §2, §3

Data set [3] has as its system PAI-1 expression in Mv1Lu cells. Kind of data set: TGF-β1-stimulated expression of PAI-1 mRNA (Northern blot / real-time RT-PCR) in Mv1Lu cells. Format: cell-based. The method, then: (A-G) Cells were pretreated with vehicle only or with several concentrations (as indicated) of β-CD (A,C), thioridazine (B), TFP (D), chloroquine (E), monensin (F) and MDC (G) at 37° C. for 1 h. Treated cells were then stimulated with 50 pM TGF-β1. After 2 h at 37° C., the mRNAs of PAI-1 and G3PDH (as control) in the cell lysates were analyzed by Northern blot (top) and quantified using a PhosphoImager (bottom) (A,B) or real-time RT-PCR (C to G). The TGF-β-stimulated expression of PAI-1 in cells treated with vehicle only was taken as 100% (A, B) or 1 fold (C to G) of control. […] (H) Cells were pretreated with several concentrations (as indicated) of dynasore at 37° C. for 1 h and then stimulated with 50 pM TGF-β1. After 2 h at 37° C., the mRNA of PAI-1 was quantitated by real-time RT-PCR. The relative level of PAI-1 mRNA in cells treated with TGF-β1 alone was taken as 1 (100%). Experiments were carried out in triplicate. The data shown is representative of 3 independent experiments.
The PAI-1 gene is one of the most studied genes responsive to TGF-β stimulation^4,5. The promotor region of the PAI-gene contains several Smad2/3 binding sites that have been used as the TGF-β responsive elements to enhance the expression of a reported gene^4,5. […] Cells were pretreated with vehicle only and several concentrations of β-CD, thioridazine, TFP, MDC, monensin and chloroquine at 37° C. for 1 h. Cells were then stimulated with 50 pM TGF-β1. After 2 h at 37° C., the relative levels of PAI-1 mRNA were analyzed by quantitative Northern blot analysis (FIGS. 3A and 3B) and real-time RT-PCR (FIG. 3C-3G).
On the technique in general: Real-time PCR tracks product formation cycle by cycle.

Data set [4] deals with PAI-1 expression in Chinese hamster ovary cells (CHO cells). The data set is described as follows: TGF-β-stimulated expression of PAI-1 in CHO cells. It is filed as cell-based. Conditions: dynasore 50 μM; CHO cells (unpublished results). How it is done: as §2
In data set [5] the test system is PAI-1 expression in bovine aortic endothelial cells (BAEC cells). The data set is described as follows: TGF-β-stimulated expression of PAI-1 in BAEC cells. It is filed as cell-based. Conditions: dynasore 50 μM; BAEC cells (unpublished results). How it is done:
as §2

[6] abbreviates: dynasore 1 mg/kg every two days for 8 weeks, indirect immunofluorescent staining.

Take `O=C(N/N=C/c1ccc(O)c(O)c1)c1cc2ccccc2cc1O` [dynasore]: the “TβR-II staining in the aortic endothelium of coronary arteries” value in data set [1] (setting [6]) is reported as “appeared to restore the TβR-II staining”. In data set [1] (setting [6]), the “TβR-II staining in the smooth muscle near the endothelium” value is on record as “slight staining of TβR-II was found”. Also, in data set [1] (dynasore 1 mg/kg intraperitoneal every two days for 8 weeks), the effect on atherosclerosis result is “effectively ameliorates atherosclerosis”. Besides, in data set [1] (dynasore 1 mg/kg intraperitoneal every two days for 8 weeks, H & E staining), the “macrophages or foam cells in the endothelium of the coronary arteries” value is “very few macrophages or foam cells were found”. Also, the “morphology of the coronary arteries” value in data set [2] (dynasore 1 mg/kg every two days for 8 weeks, H & E staining) was “normal morphology”. For the same molecule, the “macroscopic or microscopic abnormality in the liver, heart, lung and kidney” value in data set [2] (dynasore 1 mg/kg intraperitoneal every 2 days for 8 weeks) was “no apparent macroscopic or microscopic abnormality has been detected”. For the same molecule, the “stimulation of PAI-1 expression by dynasore alone” value in data set [3] (dynasore 25 μM without TGF-β1, real-time RT-PCR) is listed as “to the same extent as with 50 pM TGF-β1 alone”. Also, the “enhancement of TGF-β-stimulated expression of PAI-1” value in data set [3] (dynasore 50 μM), in data set [4] and in data set [5] was 4-5 fold throughout. In addition, the “enhancement of TGF-β1-stimulated PAI-1 expression” value in data set [3] (dynasore 50 μM, 50 pM TGF-β1 for 2 h, real-time RT-PCR) is approximately 5 fold.
